Source: ChEMBL document CHEMBL3244320, “2-Acetylpyridine thiosemicarbazones. 1. A new class of potential antimalarial agents” (J Med Chem, 1979)

Key:
Assay type in all cases: functional
Conditions in all cases: route subcutaneous
Plasmodium berghei [1] = experiment: Antimalarial activity against Plasmodium berghei KBG 173 infected in ICR/HA Swiss mouse assessed as increase in mean survival time at 160 mg/kg, sc administered 72 hrs post infection
Plasmodium berghei [2] = experiment: Antimalarial activity against Plasmodium berghei KBG 173 infected in ICR/HA Swiss mouse assessed as increase in mean survival time at 640 mg/kg, sc administered 72 hrs post infection
Plasmodium berghei [3] = experiment: Antimalarial activity against Plasmodium berghei KBG 173 infected in ICR/HA Swiss mouse assessed as increase in mean survival time at 40 mg/kg, sc administered 72 hrs post infection
Plasmodium berghei [4] = experiment: Antimalarial activity against Plasmodium berghei KBG 173 infected in ICR/HA Swiss mouse assessed as increase in mean survival time at 320 mg/kg, sc administered 72 hrs post infection
Plasmodium berghei [5] = experiment: Antimalarial activity against Plasmodium berghei KBG 173 infected in ICR/HA Swiss mouse assessed as increase in mean survival time at 80 mg/kg, sc administered 72 hrs post infection

SMILES | MST (Plasmodium berghei [1]) | MST (Plasmodium berghei [2]) | MST (Plasmodium berghei [3]) | MST (Plasmodium berghei [4]) | MST (Plasmodium berghei [5])
CC/C(=N\NC(=S)Nc1ccc([N+](=O)[O-])cc1)c1ccccn1 | 0.1 days | 0.3 days | 0.1 days | – | –
C/C(=N\NC(=S)Nc1ccc(Cl)cc1Cl)c1ccccn1 | 0.3 days | 0.7 days | -0.1 days | – | –
CC/C(=N\NC(=S)Nc1ccc(Br)cc1)c1ccccn1 | 0.3 days | 0.7 days | 0.3 days | – | –
C/C(=N\NC(=S)Nc1ccc(C(C)C)cc1)c1ccccn1 | 2.1 days | 5.5 days | 0.5 days | 5.9 days | 1.9 days
C/C(=N\NC(=S)Nc1cccc(Cl)c1Cl)c1ccccn1 | 0.2 days | 0.6 days | -0.2 days | – | –
C/C(=N\NC(=S)Nc1cccc(Br)c1)c1ccccn1 | 0.3 days | 0.9 days | 0.1 days | – | –
C/C(=N\NC(=S)NCc1ccc(C)c(C)c1)c1ccccn1 | 0.1 days | 2.1 days | 0.3 days | – | –
C/C(=N\NC(=S)Nc1ccccc1Cl)c1ccccn1 | 2.3 days | 8.1 days | 0.5 days | 6.1 days | 0.5 days
C/C(=N\NC(=S)Nc1ccccc1C)c1ccccn1 | 0.9 days | 9.9 days | 0.1 days | 5.1 days | 0.5 days
C/C(=N\NC(=S)Nc1cc(Cl)c(Cl)cc1Cl)c1ccccn1 | 0.1 days | -0.1 days | -0.3 days | – | –
C/C(=N\NC(=S)Nc1ccc(F)cc1)c1ccccn1 | 3.9 days | – | 1.3 days | 7.7 days | 3.7 days
C/C(=N\NC(=S)NC(c1ccccc1)(c1ccccc1)c1ccccc1)c1ccccn1 | 0.1 days | 0.1 days | 0.1 days | – | –
C/C(=N\NC(=S)NC(C)c1ccc(F)cc1)c1ccccn1 (stereo not given) | 8.5 days | – | 1.1 days | 5.2 days | 5.5 days
C/C(=N\NC(=S)Nc1ccncc1)c1ccccn1 | 0.3 days | 0.9 days | 0.1 days | – | –
C/C(=N\NC(=S)Nc1ccc(Cl)c(Cl)c1Cl)c1ccccn1 | 0.1 days | -0.3 days | 0.1 days | – | –
C/C(=N\NC(=S)NCc1ccncc1)c1ccccn1 | 0.4 days | 0 days | 0.3 days | – | –
COc1ccc(NC(=S)N/N=C(\C)c2ccccn2)nn1 | 0.1 days | 0.2 days | 0.1 days | – | –
C/C(=N\NC(=S)NCc1cccc(F)c1)c1ccccn1 | 3.4 days | 9.4 days | 0.4 days | 5.8 days | 1.4 days
COc1ccccc1NC(=S)N/N=C(\C)c1ccccn1 | 2 days | 6.6 days | 0.1 days | 4.6 days | 0.4 days
CC/C(=N\NC(=S)NC12CC3CC(CC(C3)C1)C2)c1ccccn1 | 3.7 days | 9.1 days | – | 6.3 days | 0.3 days
CC/C(=N\NC(=S)Nc1ccc(Cl)cc1)c1ccccn1 | 0.7 days | 1.1 days | 0.3 days | – | –

SMILES | MST (Plasmodium berghei [1]) | MST (Plasmodium berghei [2]) | MST (Plasmodium berghei [3]) | MST (Plasmodium berghei [4]) | MST (Plasmodium berghei [5])
C/C(=N\NC(=S)Nc1ccccn1)c1ccccn1 | 4.5 days | 8.1 days | 1.5 days | 6.5 days | 2.7 days
C/C(=N\NC(=S)NCc1ccc(Cl)cc1)c1ccccn1 | 2.1 days | 6.9 days | 0.5 days | 4.3 days | 0.5 days
C/C(=N\NC(=S)NCc1cccc(Cl)c1)c1ccccn1 | 1.6 days | -0.4 days | – | 0 days | 0 days
C/C(=N\NC(=S)Nc1ccccc1[N+](=O)[O-])c1ccccn1 | 0.9 days | 4.5 days | 0.1 days | 5.7 days | 0.1 days
COc1ccccc1CNC(=S)N/N=C(\C)c1ccccn1 | 1.3 days | 6.9 days | 0.1 days | 3.5 days | 0.3 days
C/C(=N\NC(=S)Nc1ccc(Cl)c(Cl)c1)c1ccccn1 | 0.5 days | 0.5 days | 0.5 days | – | –
C/C(=N\NC(=S)Nc1c2ccccc2nc2ccccc12)c1ccccn1 | 0.3 days | 0.5 days | 0.3 days | – | –
C/C(=N\NC(=S)NCc1cccnc1)c1ccccn1 | 0.3 days | 0.6 days | 0.1 days | – | –
CC/C(=N\NC(=S)NC(c1ccccc1)(c1ccccc1)c1ccccc1)c1ccccn1 | 0.1 days | 0.3 days | 0.1 days | – | –
C/C(=N\NC(=S)Nc1cc(Cl)ccc1Cl)c1ccccn1 | 0.1 days | 0.1 days | -0.1 days | – | –
CCOC(=O)c1ccc(NC(=S)N/N=C(\CC)c2ccccn2)cc1 | 0.5 days | 0.5 days | 0.3 days | – | –
C/C(=N\NC(=S)NCc1ccc(Cl)c(Cl)c1)c1ccccn1 | 0.5 days | 0.1 days | 0.1 days | – | –
C/C(=N\NC(=S)Nc1ccc(O)cc1)c1ccccn1 | 0.3 days | 0.6 days | 0.1 days | – | –
C/C(=N\NC(=S)NCc1ccc(Cl)cc1Cl)c1ccccn1 | 1 days | 2 days | 0.4 days | – | –
C/C(=N\N=C(/S)NCc1ccccc1)c1ccccn1 | 3.7 days | 10.6 days | 0.5 days | – | –
C/C(=N\NC(=S)NCc1ccccn1)c1ccccn1 | 0.3 days | 0.9 days | 0.1 days | – | –
C/C(=N\NC(=S)NCc1ccccc1Cl)c1ccccn1 | 0.3 days | 1.9 days | 0.3 days | – | –
C/C(=N\NC(=S)NC12CC3CC(CC(C3)C1)C2)c1ccccn1 | 3.7 days | 9.2 days | 0.7 days | 8.5 days | 1.1 days
CC/C(=N\NC(=S)Nc1ccccc1)c1ccccn1 | 2.6 days | – | 0 days | – | 1.2 days
CCc1ccc(NC(=S)N/N=C(\C)c2ccccn2)cc1 | 2.1 days | 5.7 days | 0.3 days | 3.1 days | 1.5 days
C/C(=N\NC(=S)Nc1ccccc1Br)c1ccccn1 | 0.5 days | 0.9 days | 0.1 days | – | –

SMILES | MST (Plasmodium berghei [1]) | MST (Plasmodium berghei [2]) | MST (Plasmodium berghei [3]) | MST (Plasmodium berghei [4]) | MST (Plasmodium berghei [5])
C/C(=N\NC(=S)Nc1c(Cl)cccc1Cl)c1ccccn1 | 0.9 days | 0.1 days | 0.1 days | – | –
C/C(=N\NC(=S)Nc1cc(Cl)cc(Cl)c1)c1ccccn1 | -0.2 days | 0 days | -0.2 days | – | –
C/C(=N\NC(=S)Nc1cccc([N+](=O)[O-])c1)c1ccccn1 | -0.3 days | -0.1 days | 0.1 days | – | –
COc1ccc(NC(=S)N/N=C(\C)c2ccccn2)cc1 | 9.7 days | 1.7 days | 2.1 days | – | –
CC/C(=N\NC(=S)Nc1cccc(Cl)c1)c1ccccn1 | 0.3 days | 0.5 days | 0.3 days | – | –
C/C(=N\NC(=S)Nc1ccc([N+](=O)[O-])cc1)c1ccccn1 | 0.1 days | 0.5 days | 0.1 days | – | –
C/C(=N\NC(=S)Nc1cccnc1)c1ccccn1 | 0.5 days | 1.3 days | 0.3 days | – | –
CCOC(=O)CNC(=S)N/N=C(\CC)c1ccccn1 | 0.3 days | 0.5 days | 0.3 days | – | –
CC/C(=N\NC(=S)Nc1ccccc1Cl)c1ccccn1 | 0.1 days | 0.3 days | 0.1 days | – | –
C/C(=N\NC(=S)N1CC1)c1ccccn1 | 0.1 days | 0.1 days | 0.1 days | – | –
CCCCc1ccc(NC(=S)N/N=C(\C)c2ccccn2)cc1 | 3.9 days | 9.9 days | 0.3 days | – | –
C/C(=N\NC(=S)Nc1ccc(S(=O)(=O)c2ccc(NC(=S)N/N=C(\C)c3ccccn3)cc2)cc1)c1ccccn1 | 0.1 days | 0.3 days | 0.1 days | – | –
C/C(=N\NC(=S)Nc1ccc(Br)cc1)c1ccccn1 | 0.3 days | 0.5 days | 0.3 days | – | –
C/C(=N\NC(=S)Nc1ccccc1)c1ccccn1 | 11.1 days | – | 3.1 days | – | 4.7 days
C/C(=N\NC(=S)NCc1ccc(C)cc1)c1ccccn1 | 4.3 days | – | 0.1 days | 5.7 days | 1.7 days
C/C(=N\NC(=S)NCc1cccc(C)c1)c1ccccn1 | 0.7 days | 6.5 days | 0.3 days | – | –
CCOC(=O)c1ccc(NC(=S)N/N=C(\C)c2ccccn2)cc1 | 0.3 days | 0.6 days | 0.3 days | – | –
COc1cc(NC(=S)N/N=C(\C)c2ccccn2)c2nccc(C)c2c1 | 0.1 days | 0.3 days | 0.1 days | – | –
CCOC(=O)CNC(=S)N/N=C(\C)c1ccccn1 | 0.1 days | 0.3 days | 0.1 days | – | –
